Assay results reported in patent US6586173B2, “Methods for the detection of amino acid decarboxylases” (priority 1999, dated 2003).
“And” between values parts separate entries of the source, which are not always exact repeats. Equal values may be shown once. Read-outs that look alike come from different tables or passages of the source. No end group written: not given here. *: point of attachment. AMC = Cc1cc(=O)oc2cc(N*)ccc12

Tests used:
D. immitis L3 larvae = assay: Larval culture assay, molting of L3 larvae counted by shed cuticles; format: cell-based, Dirofilaria immitis
Di-ADC [1] = assay: Effect of inhibitors on cleavage of H-Phe-AMC by Di-ADC (D. immitis L3/L4 ES); format: biochemical, Dirofilaria immitis
Tyr-DC = biological target: T1, Tyr-DC (Enterococcus faecalis, UniProt P0DTQ4); assay: Inhibitor assay with commercially prepared Tyr-DC as enzyme source; format: biochemical
T1 sequence (P0DTQ4 1-620): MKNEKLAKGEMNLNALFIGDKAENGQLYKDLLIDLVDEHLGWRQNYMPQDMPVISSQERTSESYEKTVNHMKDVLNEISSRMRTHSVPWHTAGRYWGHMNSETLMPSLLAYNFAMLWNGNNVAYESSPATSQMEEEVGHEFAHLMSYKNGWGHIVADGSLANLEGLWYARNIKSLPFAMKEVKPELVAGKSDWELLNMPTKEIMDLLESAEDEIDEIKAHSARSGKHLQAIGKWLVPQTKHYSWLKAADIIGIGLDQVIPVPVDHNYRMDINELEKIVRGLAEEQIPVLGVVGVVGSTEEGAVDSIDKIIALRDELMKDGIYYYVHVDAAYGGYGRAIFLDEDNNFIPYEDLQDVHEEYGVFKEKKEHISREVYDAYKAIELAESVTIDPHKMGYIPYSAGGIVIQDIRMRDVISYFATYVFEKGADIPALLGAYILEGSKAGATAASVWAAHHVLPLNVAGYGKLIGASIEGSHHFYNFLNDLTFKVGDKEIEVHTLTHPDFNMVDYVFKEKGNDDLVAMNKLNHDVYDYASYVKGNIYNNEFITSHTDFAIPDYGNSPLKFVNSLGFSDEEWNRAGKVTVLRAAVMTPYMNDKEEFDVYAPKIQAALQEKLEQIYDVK

Phe-DC [2] = assay: Inhibitor assay with commercially prepared Phe-DC as enzyme source; format: biochemical
D. immitis L3/L4 ES = format: biochemical, Dirofilaria immitis; details: pH 7.5
[3] = test system: phenylalanine decarboxylase (Phe-DC); assay: Substrate specificity assay on commercially prepared Phe-DC; format: biochemical; details: as Example 1
Phe-DC [4] = assay: Enzyme kinetics of Phe-DC with AMC substrates (fluorimetric assay); format: biochemical; details: substrate 0.0016 to 0.2 mM, double-reciprocal plot
Experimental: E. Enzyme kinetics, as measured by Michaelis constant (Km) and maximal velocity (Vmax), can be used to characterize the activity of an enzyme towards a given substrate under defined conditions. Enzymatic reactions were performed under the fluorimetric assay conditions described in Example 1 using Di-ADC and commercially prepared Phe-DC as the enzymes and H-Phe-AMC, H-Tyr-AMC and H-Trp-AMC as the substrates. One μL of purified adult Di-ADC, prepared as described in Example 2 through the gel filtration chromatography step, or 80 micro units (μU) (11.4 μg) of Phe-DC were incubated with each substrate at substrate concentrations ranging from 0.0016 to 0.2 mM. Each reaction was carried out in duplicate in PBS reaction buffer and monitored using the fluorimetric method described in Example 1. The values of apparent Km and Vm, of Di-ADC and Phe-DC for the substrates H-Phe-AMC, H-Tyr-AMC and H-Trp-AMC were calculated from a double-reciprocal plot of 1/v against 1/[substrate].

Di-ADC [5] = assay: Enzyme kinetics of Di-ADC with AMC substrates (fluorimetric assay); format: biochemical, Dirofilaria immitis; details: substrate 0.0016 to 0.2 mM, double-reciprocal plot
[6] = biological target: T2, tyrosine decarboxylase (Tyr-DC) (Enterococcus faecalis, UniProt P0DTQ4); assay: Substrate specificity assay on commercially prepared Tyr-DC; format: biochemical; details: as Example 1
T2 sequence (P0DTQ4 1-620): T1 sequence (P0DTQ4 1-620)

Di-ADC [7] = assay: Carbon dioxide release on decarboxylation of L-phenylalanine by Di-ADC (INFINITY CO2 kit); format: biochemical, Dirofilaria immitis; details: 5 mM L-phenylalanine, 37° C., 45 minutes
Phe-DC [8] = assay: Carbon dioxide release on decarboxylation of L-phenylalanine by Phe-DC (control reaction); format: biochemical; details: 375 U Phe-DC
Phe-DC [9] = assay: Formation of dopamine from dopa by Phe-DC; format: biochemical; details: 172 μU Phe-DC, 0.5 mM L-dopa, 37° C., 30 minutes
Di-ADC [10] = assay: Formation of dopamine from dopa by Di-ADC; format: biochemical, Dirofilaria immitis; details: 10 μl Di-ADC, 0.5 mM L-dopa, 37° C., 30 minutes
[11] = compared with inhibition of Di-ADC

Compound: O=c1oc(Cl)c(Cl)c2ccccc12 [3,4-DCI, 3,4-Dichioroisocoumarin]
- % Inhibition of molting of L3 larvae (D. immitis L3 larvae; 0.001 mM, 3 days culture): 28.6%
- % Inhibition of molting of L3 larvae (D. immitis L3 larvae; 0.01 mM, 3 days culture): 40.9%
- % Inhibition of molting of L3 larvae (D. immitis L3 larvae; 0.1 mM, 3 days culture): 100%
- inhibition of the molting process (in words) (D. immitis L3 larvae; final concentration of 0.1 mM): completely inhibited the molting process
- inhibition of Di-ADC activity relative to Phe-DC or Tyr-DC activity (Di-ADC [1]; comparison between enzymes): more strongly
- sensitivity of the enzyme activity (H-Phe-AMC cleavage) to inhibitor (Di-ADC [1]; inhibitor concentrations of Table II, pre-incubated 30 minutes at 37° C.): sensitive

Compound: NCCc1c[nH]c2ccc(O)cc12 [5-HT, 5-hydroxytryptamine]
- inhibition of Tyr-DC activity (Tyr-DC; [11]): at levels similar to the level that each inhibited Di-ADC
- inhibition of Phe-DC activity (Phe-DC [2]; [11]): at levels similar to the level that each inhibited Di-ADC

Compound: N=C(N)c1ccc(CS(=O)(=O)F)cc1 [APMSF]
- % Inhibition of molting of L3 larvae (D. immitis L3 larvae): 19.7% and 24.2% and 14.1%
- inhibition of the molting of L3 to L4 (in words) (D. immitis L3 larvae): unable to completely inhibit the molting

Compound: O=C(O)c1cc[c]([Hg][Cl])cc1 [CMBA, p-chloromercuribenzoic acid]
- inhibition of Tyr-DC activity (Tyr-DC): at levels similar to the level that each inhibited Di-ADC
- inhibition of Phe-DC activity (Phe-DC [2]): at levels similar to the level that each inhibited Di-ADC

Compound: Cc1cc(=O)oc2cc(NC(=O)[C@H](Cc3ccccc3)NC(=O)CCCC(=O)O)ccc12 [Glutaryl—Phe—AMC]
- D. immitis L3/L4 ES Activity (cleavage of substrate) (D. immitis L3/L4 ES): No

Compound: Cc1cc(=O)oc2cc(NC(=O)[C@H](C)N)ccc12 [H—Ala—AMC]
- D. immitis L3/L4 ES Activity (cleavage of substrate) (D. immitis L3/L4 ES): No

Compound: Cc1cc(=O)oc2cc(NC(=O)[C@@H](N)CCCN=C(N)N)ccc12 [H—Arg—AMC]
- D. immitis L3/L4 ES Activity (cleavage of substrate) (D. immitis L3/L4 ES): No

Compound: Cc1cc(=O)oc2cc(NC(=O)[C@@H](N)CCC(=O)O)ccc12 [H—Glu—AMC]
- D. immitis L3/L4 ES Activity (cleavage of substrate) (D. immitis L3/L4 ES): No

Compound: Cc1cc(=O)oc2cc(NC(=O)CN)ccc12 [H—Gly—AMC]
- D. immitis L3/L4 ES Activity (cleavage of substrate) (D. immitis L3/L4 ES): No

Compound: Cc1cc(=O)oc2cc(NC(=O)[C@@H](N)Cc3cnc[nH]3)ccc12 [H—His—AMC]
- D. immitis L3/L4 ES Activity (cleavage of substrate) (D. immitis L3/L4 ES): No

Compound: Cc1cc(=O)oc2cc(NC(=O)[C@@H](N)CC(C)C)ccc12 [H—Leu—AMC]
- D. immitis L3/L4 ES Activity (cleavage of substrate) (D. immitis L3/L4 ES): No

Compound: Cc1cc(=O)oc2cc(NC(=O)[C@@H](N)CCCCN)ccc12 [H—Lys—AMC]
- D. immitis L3/L4 ES Activity (cleavage of substrate) (D. immitis L3/L4 ES): No

Compound: CSCC[C@H](N)C(=O)Nc1ccc2ccccc2c1 [H—Met—NHNap]
- D. immitis L3/L4 ES Activity (cleavage of substrate) (D. immitis L3/L4 ES): No

Compound: Cc1cc(=O)oc2cc(NC(=O)[C@@H](N)Cc3ccccc3)ccc12 [H—Phe—AMC]
- cleavage of substrate by Phe-DC [3]: cleave
- Km (Phe-DC [4]): 23.1 µM
- Vmax (Phe-DC [4]): 0.619 pmol/mg/min
- Km (Di-ADC [5]): 32.1 µM
- Vmax (Di-ADC [5]): 0.234 pmol/mg/min
- D. immitis L3/L4 ES Activity (cleavage of substrate) (D. immitis L3/L4 ES): Yes
- cleavage of substrate by Tyr-DC [6]: cleave

Compound: Cc1cc(=O)oc2cc(NC(=O)[C@@H]3CCCN3)ccc12 [H—Pro—AMC]
- D. immitis L3/L4 ES Activity (cleavage of substrate) (D. immitis L3/L4 ES): No

Compound: Cc1cc(=O)oc2cc(NC(=O)C(N)CO)ccc12 (stereo not shown) [H—Ser—AMC]
- D. immitis L3/L4 ES Activity (cleavage of substrate) (D. immitis L3/L4 ES): No

Compound: Cc1cc(=O)oc2cc(NC(=O)[C@@H](N)Cc3c[nH]c4ccccc34)ccc12 [H—Trp—AMC]
- cleavage of substrate by Phe-DC [3]: cleave
- Km (Phe-DC [4]): 22.9 µM
- Vmax (Phe-DC [4]): 0.703 pmol/mg/min
- Km (Di-ADC [5]): 29.1 µM
- Vmax (Di-ADC [5]): 0.140 pmol/mg/min
- D. immitis L3/L4 ES Activity (cleavage of substrate) (D. immitis L3/L4 ES): Yes
- cleavage of substrate by Tyr-DC [6]: cleave

Compound: Cc1cc(=O)oc2cc(NC(=O)[C@@H](N)Cc3ccc(O)cc3)ccc12 [H—Tyr—AMC]
- cleavage of substrate by Phe-DC [3]: cleave
- Km (Phe-DC [4]): 72.3 µM
- Vmax (Phe-DC [4]): 0.339 pmol/mg/min
- Km (Di-ADC [5]): 35.1 µM
- Vmax (Di-ADC [5]): 0.152 pmol/mg/min
- D. immitis L3/L4 ES Activity (cleavage of substrate) (D. immitis L3/L4 ES): Yes
- cleavage of substrate by Tyr-DC [6]: cleave

Compound: N[C@@H](Cc1ccccc1)C(=O)O [L-phenylalanine]
- formation of CO2 (Di-ADC [7]; 5 μL Di-ADC): 0.7 mM
- formation of CO2 (Di-ADC [7]; 10 μL Di-ADC): 0.38 mM
- formation of CO2 (Di-ADC [7]; 20 μl Di-ADC): 0.4 mM
- formation of CO2 (Phe-DC [8]): 0.27 mM

Compound: O=S(=O)(F)Cc1ccccc1 [PMSF, Phenylmethane-7-sulfonyl fluoride]
- % Inhibition of molting of L3 larvae (D. immitis L3 larvae): 32.3% and 47.3% and 29.8%
- inhibition of the molting of L3 to L4 (in words) (D. immitis L3 larvae): unable to completely inhibit the molting
- inhibition of Di-ADC activity relative to Phe-DC or Tyr-DC activity (Di-ADC [1]): more strongly
- sensitivity of the enzyme activity (H-Phe-AMC cleavage) to inhibitor (Di-ADC [1]): sensitive

Compound: Cl.NCCc1ccc(S(=O)(=O)F)cc1 [Pefabloc]
- effect on molting (in words) (D. immitis L3 larvae): no apparent effect on molting
- effect on the molt (in words) (D. immitis L3 larvae): inhibited the molt completely
- inhibition of the molting process (in words) (D. immitis L3 larvae): completely inhibited the molting process
- inhibition of Tyr-DC activity (Tyr-DC): at levels similar to the level that each inhibited Di-ADC
- sensitivity of the enzyme activity (H-Phe-AMC cleavage) to inhibitor (Di-ADC [1]): sensitive
- inhibition of Phe-DC activity (Phe-DC [2]): at levels similar to the level that each inhibited Di-ADC

Compound: N[C@@H](Cc1ccc(O)c(O)c1)C(=O)O [dopa, L-dopa]
- dopamine formed (Phe-DC [9]): 9.4 nmol
- dopamine formed (Di-ADC [10]): 2.74 nmol

Compound: Ala-Ala-Phe-{AMC}
- D. immitis L3/L4 ES Activity (cleavage of substrate) (D. immitis L3/L4 ES): No
